In patent US9067932B2, “Pyrazolopyridine kinase inhibitors” (Vertex Pharmaceuticals Incorporated, priority 2010, dated 2015) one finds Ki data, which are given here for 32 compounds.

Format in all cases: biochemical
The target in one assay is PKC theta kinase (Homo sapiens, UniProt Q04759). In words: PKC theta coupled-enzyme (NADH consumption) kinase assay. The conditions noted are these: 18 nM PKC theta, 240 μM ATP, 30° C., initial rate at 340 nm. Here is the method:
(§1) An assay buffer solution was prepared which consisted of 100 mM HEPES (pH 7.5), 10 mM MgCl2, 25 mM NaCl, 0.1 mM EDTA and 0.01% Brij. […] To 60 μL of this enzyme buffer, in a 384 well plate, was added 2 μL of VRT stock solution in DMSO. […] The enzyme reaction was initiated by the addition of 5 μL stock ATP solution prepared in assay buffer to a final assay concentration of 240 μM. Initial rate data was determined from the rate of change of absorbance at 340 nm (corresponding to stoichiometric consumption of NADH) using a Molecular Devices Spectramax plate reader (Sunnyvale, Calif.) over 15 mins at 30° C. For each Ki determination 12 data points covering the VRT concentration range of 0-20 μM were obtained in duplicate (DMSO stocks were prepared from an initial 10 mM VRT stock with subsequent 1:2 serial dilutions). Ki values were calculated from initial rate data by non-linear regression using the Prism software package (Prism 4.0a, Graphpad Software, San Diego, Calif.).

The next assay has as its target PKC delta kinase (Homo sapiens, UniProt Q05655). In words: PKC delta coupled-enzyme (NADH consumption) kinase assay. The settings on record: 46 nM PKC delta, 150 μM ATP, 30° C., initial rate at 340 nm. Here is the method:
as §1, with “To 16” for “To 60”, “added 1” for “added 2”, “of 16” for “of 5”, “of 150” for “of 240”

The target in another assay is PKC alpha kinase (Homo sapiens, UniProt P17252). In words: PKC alpha coupled-enzyme (NADH consumption) kinase assay. The conditions noted are these: 4.5 nM PKC alpha, 130 μM ATP, 100 μM CaCl2, 30° C. Here is the method: An assay buffer solution was prepared which consisted of 100 mM HEPES (pH 7.5), 10 mM MgCl2, 25 mM NaCl, 0.1 mM EDTA, 100 μM CaCl2 and 0.01% Brij. An enzyme buffer containing reagents to final assay concentrations of 0.002% Triton X-100, 100 μg/mL Phosphatidylserine, 20 μg/mL Diacylglycerol, 360 μM NADH, 3 mM phosphoenolpyruvate, 70 μg/mL pyruvate kinase, 24 μg/mL lactate dehydrogenase, 2 mM DTT, 150 μM substrate peptide ([…] SEQ ID NO. 1) and 4.5 nM PKC alpha kinase was prepared in assay buffer. To 16 μL of this enzyme buffer, in a 384 well plate, was added 1 μL of VRT stock solution in DMSO. The mixture was allowed to equilibrate for 10 mins at 30° C. The enzyme reaction was initiated by the addition of 16 μL stock ATP solution prepared in assay buffer to a final assay concentration of 130 μM. Initial rate data was determined from the rate of change of absorbance at 340 nm (corresponding to stoichiometric consumption of NADH) using a Molecular Devices Spectramax plate reader (Sunnyvale, Calif.) over 15 mins at 30° C. For each Ki determination 12 data points covering the VRT concentration range of 0-20 μM were obtained in duplicate (DMSO stocks were prepared from an initial 10 mM VRT stock with subsequent 1:2 serial dilutions). Ki values were calculated from initial rate data by non-linear regression using the Prism software package (Prism 4.0a, Graphpad Software, San Diego, Calif.).

The term Ki denotes the equilibrium dissociation constant of an inhibitor or competing ligand from its target.

Structures are written as SMILES. Like-named read-outs stand apart in the source and are kept apart here. Bounds are passed on as bounds.

Sequence of PKC theta kinase (Q04759 whole entry): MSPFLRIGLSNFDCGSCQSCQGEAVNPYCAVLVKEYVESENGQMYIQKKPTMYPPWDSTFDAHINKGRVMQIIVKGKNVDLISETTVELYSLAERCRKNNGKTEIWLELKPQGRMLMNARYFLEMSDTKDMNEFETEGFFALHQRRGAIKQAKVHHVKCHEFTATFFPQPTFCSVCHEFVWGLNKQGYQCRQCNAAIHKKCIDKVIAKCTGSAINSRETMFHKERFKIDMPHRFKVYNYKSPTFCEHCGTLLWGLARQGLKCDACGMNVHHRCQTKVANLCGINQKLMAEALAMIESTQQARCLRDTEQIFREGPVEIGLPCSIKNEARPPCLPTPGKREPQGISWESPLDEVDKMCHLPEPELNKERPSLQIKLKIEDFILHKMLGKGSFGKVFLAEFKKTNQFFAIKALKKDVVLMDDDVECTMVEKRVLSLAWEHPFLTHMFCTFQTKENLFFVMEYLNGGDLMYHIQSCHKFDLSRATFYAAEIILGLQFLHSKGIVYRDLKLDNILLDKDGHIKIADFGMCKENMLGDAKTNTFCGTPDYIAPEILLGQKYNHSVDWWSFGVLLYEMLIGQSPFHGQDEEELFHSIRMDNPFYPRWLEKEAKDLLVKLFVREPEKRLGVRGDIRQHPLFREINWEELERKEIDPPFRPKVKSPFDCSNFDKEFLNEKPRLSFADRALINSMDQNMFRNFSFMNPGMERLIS
Sequence of PKC delta kinase (Q05655 whole entry): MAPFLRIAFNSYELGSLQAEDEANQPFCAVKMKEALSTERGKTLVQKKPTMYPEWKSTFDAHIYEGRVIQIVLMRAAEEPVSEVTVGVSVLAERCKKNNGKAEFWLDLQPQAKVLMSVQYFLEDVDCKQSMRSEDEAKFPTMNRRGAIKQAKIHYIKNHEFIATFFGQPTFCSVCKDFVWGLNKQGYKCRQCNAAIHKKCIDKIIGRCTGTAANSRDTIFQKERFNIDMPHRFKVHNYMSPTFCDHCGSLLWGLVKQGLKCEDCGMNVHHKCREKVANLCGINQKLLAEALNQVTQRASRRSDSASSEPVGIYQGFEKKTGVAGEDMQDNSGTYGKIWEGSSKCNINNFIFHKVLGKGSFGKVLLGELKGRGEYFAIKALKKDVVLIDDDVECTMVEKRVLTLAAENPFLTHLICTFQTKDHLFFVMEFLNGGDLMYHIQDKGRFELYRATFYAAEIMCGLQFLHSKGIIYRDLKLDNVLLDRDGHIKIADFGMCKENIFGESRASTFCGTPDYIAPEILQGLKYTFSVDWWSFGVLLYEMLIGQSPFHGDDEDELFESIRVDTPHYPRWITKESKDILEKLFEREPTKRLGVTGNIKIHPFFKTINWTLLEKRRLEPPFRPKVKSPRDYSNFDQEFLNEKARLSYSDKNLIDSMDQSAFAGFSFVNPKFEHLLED

On to `OC(C1CC1)C1CN(c2nc(-c3n[nH]c4ncccc34)c(F)cc2F)CCN1` (stereo not shown) [Compound 29], for which the Ki was below 1 nM on PKC theta kinase (read-out: Ki PKC theta), below 50 nM on PKC delta kinase and below 500 nM at PKC alpha kinase (read-out: Ki PKC alpha).
The matching figures for `CC(C)[C@@H](O)[C@@H]1CN(c2nc(-c3n[nH]c4ncccc34)c(F)cc2F)CCN1` [Compound 7]: below 1 nM, below 50 nM and below 500 nM.
Regarding `CC(C)(O)[C@@](C)(O)[C@@H]1CN(c2nc(-c3n[nH]c4ncccc34)c(F)cc2Cl)CCN1` [Compound 42], the Ki on PKC theta kinase (read-out: Ki PKC theta) was below 1 nM; at PKC delta kinase it was below 50 nM; on PKC alpha kinase (read-out: Ki PKC alpha), below 2800 nM.
For `CC(C)C(N)C1CCN(c2nc(-c3n[nH]c4ncccc34)c(F)cc2F)C1` (stereo not shown) [Compound 22], the Ki is below 50 nM on PKC theta kinase (read-out: Ki PKC theta), below 500 nM on PKC delta kinase and below 2800 nM on PKC alpha kinase (read-out: Ki PKC alpha).
In the same order, the values of `CC(C)[C@@](C)(O)[C@@H]1CN(c2nc(-c3n[nH]c4ncccc34)c(F)cc2CO)CCN1` [Compound 44] are below 1 nM, below 10 nM and below 500 nM.
In the same order, the values of `CC(CO)[C@@](C)(O)[C@@H]1CN(c2nc(-c3n[nH]c4ncccc34)c(F)cc2Cl)CCN1` (stereo partly shown) [Compound 45] are below 500 nM, above 1250 nM and above 1250 nM.
The matching figures for `CC(C)[C@@](C)(O)[C@@H]1CN(c2nc(-c3n[nH]c4ncccc34)c(F)cc2Cl)CCN1` [Compound 9, (R)-2-((S)-4-(3-chloro-5-fluoro-6-(1H-pyrazolo[3,4-b]pyridin-3-yl)pyridin-2-yl)piperazin-2-yl)-3-methylbutan-2-ol]: below 1 nM, below 50 nM and below 500 nM.
Take `COCC(C)(O)C1CN(c2nc(-c3n[nH]c4ncccc34)c(F)cc2Cl)CCN1` (stereo not shown) [Compound 33]: the Ki on PKC theta kinase (read-out: Ki PKC theta) is below 50 nM; at PKC delta kinase, below 500 nM; on PKC alpha kinase (read-out: Ki PKC alpha), above 1250 nM.
In the case of `CC(C)C(N)[C@H]1CCN(c2nc(-c3n[nH]c4ncccc34)c(F)cc2Cl)C1` (stereo partly shown) [Compound 24], the Ki at PKC theta kinase (read-out: Ki PKC theta) is below 50 nM; at PKC delta kinase, below 500 nM; at PKC alpha kinase (read-out: Ki PKC alpha) it was above 1250 nM.
`CC(C)[C@@](C)(O)[C@@H]1CN(c2nc(-c3n[nH]c4ncccc34)c(F)cc2F)CCN1` [Compound 1, (R)-2-((S)-4-(3,5-difluoro-6-(1H-pyrazolo[3,4-b]pyridin-3-yl)pyridin-2-yl)piperazin-2-yl)-3-methylbutan-2-ol]: the Ki is below 1 nM on PKC theta kinase (Ki PKC theta), below 50 nM at PKC delta kinase and below 500 nM on PKC alpha kinase (Ki PKC alpha).
For the compound `CC(C)(O)[C@@](C)(O)[C@@H]1CN(c2nc(-c3n[nH]c4ncccc34)c(F)cc2F)CCN1` [Compound 41], the Ki is below 1 nM on PKC theta kinase (read-out: Ki PKC theta), below 500 nM on PKC delta kinase and below 500 nM on PKC alpha kinase (read-out: Ki PKC alpha).
For the compound `COCC(C)(O)C1CN(c2nc(-c3n[nH]c4ncccc34)c(F)cc2F)CCN1` (stereo not shown) [Compound 16], the figures for the Ki on PKC theta kinase (read-out: Ki PKC theta), at PKC delta kinase and at PKC alpha kinase (read-out: Ki PKC alpha) were below 50 nM, below 500 nM and above 1250 nM, respectively.
In the same order, the values of `CC(C)C(N)[C@H]1CCN(c2nc(-c3n[nH]c4ncccc34)c(F)cc2C#N)C1` (stereo partly shown) [Compound 37] are below 50 nM, below 500 nM and below 2800 nM.
Regarding `CC(C)[C@@](C)(O)[C@@H]1CN(c2nc(-c3n[nH]c4ncccc34)c(F)cc2O)CCN1` [Compound 32], the Ki was below 1 nM at PKC theta kinase (read-out: Ki PKC theta), below 10 nM at PKC delta kinase and below 500 nM on PKC alpha kinase (read-out: Ki PKC alpha).
Turning to `CC(C)C(N)[C@H]1CCN(c2nc(-c3n[nH]c4ncccc34)c(F)cc2F)C1` (stereo partly shown) [Compound 28], the figures for the Ki at PKC theta kinase (read-out: Ki PKC theta), at PKC delta kinase and on PKC alpha kinase (read-out: Ki PKC alpha) were below 1 nM, below 50 nM and below 500 nM, respectively.
The matching figures for `CC(C)[C@](C)(O)[C@@H]1CN(c2nc(-c3n[nH]c4ncccc34)c(F)cc2Cl)CCN1` [Compound 38]: below 50 nM, below 500 nM and below 2800 nM.
In the same order, the values of `CC(C)[C@@](C)(O)C1CN(c2nc(-c3n[nH]c4ncccc34)c(C#N)cc2F)CCN1` (stereo partly shown) [Compound 34] are below 50 nM, above 1250 nM and above 1250 nM.
`CC(C)(F)C(C)(O)C1CN(c2nc(-c3n[nH]c4ncccc34)c(F)cc2F)CCN1` (stereo not shown) [Compound 12]: the Ki was below 50 nM at PKC delta kinase and below 500 nM at PKC alpha kinase (read-out: Ki PKC alpha).
`CCC(C)(O)C1CN(c2nc(-c3n[nH]c4ncccc34)c(F)cc2F)CCN1` (stereo not shown) [Compound 6]: the Ki is below 1 nM on PKC theta kinase (read-out: Ki PKC theta), below 50 nM at PKC delta kinase and below 2800 nM on PKC alpha kinase (read-out: Ki PKC alpha).
`CC(C)C(C)(O)C1CN(c2nc(C3N=Nc4ncccc43)c(F)cc2F)CCN1` (stereo not shown) [Compound 3]: the Ki on PKC theta kinase (Ki PKC theta) is below 1 nM; on PKC delta kinase it was below 500 nM; on PKC alpha kinase (Ki PKC alpha), below 2800 nM.
For the compound `COCC(C)(O)C1CN(c2nc(-c3n[nH]c4ncccc34)c(F)cc2F)CCN1` (stereo not shown) [Compound 17], at PKC alpha kinase (read-out: Ki PKC alpha), the Ki was below 2800 nM.
Take `CC[C@@H](O)[C@@H]1CN(c2nc(-c3n[nH]c4ncccc34)c(F)cc2F)CCN1` [Compound 8]: the Ki on PKC theta kinase (read-out: Ki PKC theta) is below 1 nM; at PKC delta kinase, below 50 nM; at PKC alpha kinase (read-out: Ki PKC alpha), below 2800 nM.
With `CC(O)(C1CC1)C1CN(c2nc(-c3n[nH]c4ncccc34)c(F)cc2F)CCN1` (stereo not shown) [Compound 5], the Ki at PKC delta kinase is below 50 nM; on PKC alpha kinase (read-out: Ki PKC alpha), below 500 nM.
Take `CC(C)C(N)[C@H]1CCN(c2nc(-c3n[nH]c4ncccc34)c(C#N)cc2F)C1` (single isomer, unassigned) [Compound 36]: the Ki at PKC theta kinase (read-out: Ki PKC theta) was below 500 nM; on PKC delta kinase, above 1250 nM; on PKC alpha kinase (read-out: Ki PKC alpha), above 1250 nM.
Regarding `CC(C)[C@@](C)(O)[C@@H]1CN(c2nc(-c3n[nH]c4ncccc34)c(F)cc2C#N)CCN1` [Compound 10], at PKC alpha kinase (read-out: Ki PKC alpha), the Ki was above 1250 nM.
For the compound `CC(O)(C1CN(c2nc(-c3n[nH]c4ncccc34)c(F)cc2F)CCN1)C(F)(F)F` (stereo not shown) [Compound 13], the Ki at PKC theta kinase (read-out: Ki PKC theta) was below 1 nM; at PKC delta kinase, below 500 nM; on PKC alpha kinase (read-out: Ki PKC alpha) it was below 2800 nM.
Regarding `CC(O)(CC(F)(F)F)C1CN(c2nc(-c3n[nH]c4ncccc34)c(F)cc2F)CCN1` (stereo not shown) [Compound 15], the values for the Ki on PKC theta kinase (read-out: Ki PKC theta), on PKC delta kinase and on PKC alpha kinase (read-out: Ki PKC alpha) were below 1 nM, below 50 nM and below 500 nM, respectively.
The matching figures for `CC1(C)CC1(O)C1CN(c2nc(-c3n[nH]c4ncccc34)c(F)cc2F)CCN1` (stereo not shown) [Compound 2]: below 1 nM, below 10 nM and below 500 nM.
The matching figures for `OC(C1CC1)C1CN(c2nc(-c3n[nH]c4ncccc34)c(F)cc2Cl)CCN1` (stereo not shown) [Compound 31]: below 1 nM, below 50 nM and below 2800 nM.
As to `CC(C)[C@@](C)(O)C1CN(c2nc(-c3n[nH]c4ncccc34)c(C#N)cc2F)CCN1` (stereo partly shown) [Compound 35], at PKC theta kinase (read-out: Ki PKC theta), the Ki was below 500 nM.
`CC(C)[C@@](C)(O)[C@@H]1CN(c2nc(-c3n[nH]c4ncccc34)c(C#N)cc2F)CCN1` [Compound 43]: the Ki was below 50 nM at PKC theta kinase (read-out: Ki PKC theta), above 1250 nM at PKC delta kinase and above 1250 nM on PKC alpha kinase (read-out: Ki PKC alpha).
Take `CC(CO)[C@@](C)(O)[C@@H]1CN(c2nc(-c3n[nH]c4ncccc34)c(F)cc2F)CCN1` (stereo partly shown) [Compound 40]: the Ki is below 1 nM at PKC theta kinase (read-out: Ki PKC theta), below 50 nM at PKC delta kinase and below 500 nM at PKC alpha kinase (read-out: Ki PKC alpha).
